Where “and” joins values, the source holds several entries; their conditions need not be identical. Identical values can stand only once.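 In this assay, cells in 96-well plates receive the compound at five concentrations for 48 hours. Endpoints are linearly interpolated between the surrounding concentrations. GI50 = concentration required for 50% inhibition of growth. The concentration for full growth arrest is given as TGI.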 Where a SMILES comes first, the peptide text is derived from it. [ ]: non-standard residue; d: D form. The star is where a group is joined. ξ: configuration not given here. NMeF = CN[CH](Cc1ccccc1)C(=O)O; ξNMeF = CNC(Cc1ccccc1)C(=O)O; NMeV = CN[CH](C(=O)O)C(C)C; Boc = CC(C)(C)OC(=O)*; OBn = c1ccc(CO*)cc1
Key:
Test in all cases: inhibition of tumour cell growth, NCI panel, 48 h
[1] = system: DMS 273 small cell lung
[2] = system: RXF-631 renal
[3] = system: KM20L2 colon
[4] = system: DMS 114 small cell lung

Row | Compound | TGI [1] [µM] | TGI [2] [µM] | TGI [3] [µM] | TGI [4] [µM] | GI50 [3]
1 | COc1ccc2c(c1)CCc1c-2[nH]c2cc3c(cc2c1=O)OCO3 | > 100 | – | – | – | –
2 | CN(C)[C@@H]1C(=O)C(C(=O)NCNc2nc3n[nH]nc3c(=O)[nH]2)=C(O)[C@@]2(O)C(=O)C3=C(O)c4c(O)cccc4[C@@](C)(O)[C@H]3C[C@@H]12 | > 100 | > 47.5 | > 68.9 | 13.8 | –
3 | CNC(=O)C(C)Oc1ccc(OCC2CCCCC2)cc1 (stereo not given) | > 100 | – | – | > 100 | –
4 | CC(C)C(NC(=O)OC(C)(C)C)C(=O)N(C)C(Cc1ccccc1)C(=O)N(C)C(C(=O)OCc1ccccc1)C(C)C (stereo not drawn) (Boc-Val-[NMeF]-[NMeV]-OBn; configuration not given here) | > 100 | – | > 100 | > 100 | > 100 µM and 49.3 µM
5 | Nc1nc(SCC(=O)c2ccccc2)c2[nH]cnc2n1 | > 100 | – | > 100 | > 100 | –
6 | CC(C)[C@@H](C(=O)N(C)[C@H](C(=O)N1CCC[C@H]1C(=O)OCc1ccccc1)C(C)C)N(C)C(=O)C(Cc1ccccc1)N(C)C(=O)[C@H](NC(=O)OC(C)(C)C)C(C)C (stereo not given in full) (Boc-[dV][ξNMeF][NMeV][NMeV]P-OBn) | > 31.6 | – | > 31.6 | > 31.6 | –
7 | C=CCCCCCCCCCP(=O)(c1ccccc1)c1ccc2c(c1)OCCOCCOCCOCCO2 (stereo not given) | 29.1 | – | 27.1 | – | –
8 | CCN(CC)CCNc1ccc2ncn3c4ccc(OC)cc4c(=O)c1c23 | 14.9 | 15.8 | 8.76 | 25.2 | –
9 | Cc1ccc(Nc2cccc3c2C(=O)c2cccc(Nc4ccc(C)cc4S(=O)(=O)O)c2C3=O)c(S(=O)(=O)O)c1 | > 100 | > 100 | > 100 | > 100 | –
10 | COc1cccc(NC(=O)CSc2nnc(Cc3ccccc3)o2)c1 | > 100 | – | > 100 | > 100 | –

— PubChem BioAssay (NCI)
